From US8372967B2, “Compounds and methods for modulating expression of GCCR” (Isis Pharmaceuticals, Inc., priority 2006, dated 2013)
Strand notation (5' to 3'): a small letter for the sugar, then the base; units joined by * are phosphorothioate-linked, units joined directly phosphodiester-linked; [ ] holds rarer units or linkages, { } end groups; capitals alone tell only the bases. e = 2'-O-(2-methoxyethyl) (MOE); [5mC] = 5-methylcytosine; d = 2'-deoxy (DNA)

Key:
[1] = tested on: DGAT2 mRNA; experiment: Antisense inhibition of DGAT2 in A10 cells, 75 nM (Table 81); format: cell-based, rat; details: approximately 24 hours
Procedure: Short antisense compounds targeted to a DGAT2 nucleic acid were tested for their effects on DGAT2 mRNA in vitro. Cultured A10 cells in a 96-well plate were treated with 75 nM of short antisense compound. After a treatment period of approximately 24 hours, RNA was isolated from the cells and DGAT2 mRNA levels were measured by quantitative real-time PCR, as described herein. DGAT2 mRNA levels were adjusted according to total RNA content as measured by RIBOGREEN®. Results are presented as percent inhibition of DGAT2, relative to untreated control cells in Table 81.

[2] = tested on: rat DGAT2 mRNA; experiment: Dose-dependent inhibition of DGAT2 in A10 cells (Tables 82, 83); format: cell-based
Procedure: Additional short antisense compounds targeted to DGAT2 mRNA were tested in vitro in a dose-response experiment. A10 cells were prepared as described above and treated with 6.25, 12.5, 25.0, 50.0, 100.0, and 200.0 nM short antisense compounds to determine if DGAT2 inhibition occurs in a dose-dependent manner. […] Results are presented as percent inhibition, relative to untreated control cells.
Additional short antisense compounds targeted to DGAT2 mRNA were tested in vitro. A10 cells were prepared as described above and treated with 0.62, 1.85, 5.56, 16.67, 50.0, and 150.0 nM short antisense compounds to determine if DGAT2 inhibition occurs in a dose-dependent manner. DGAT2 mRNA was measured using quantitative real-time PCR, as described herein. […] Results are presented as percent inhibition of rat DGAT2, relative to untreated control cells.

[3] = tested on: rat SGLT2 mRNA; experiment: Rat SGLT2 mRNA in kidney, 1-10-1 and 1-10-2 MOE gapmers, Sprague-Dawley rats (Table 63); format: in vivo
Excerpt: 1-10-1 and 1-10-2 MOE gapmer antisense compounds, provided in Table 62, were designed to target different regions of the mouse or rat SGLT2 RNA. All short antisense compounds in Table 62 are chimeric oligonucleotides (“gapmers”) either 12 or 13 nucleotides in length, composed of a central “gap” segment consisting of ten 2′-deoxynucleotides, which are flanked on the 5′ side by a one-nucleoside “wing” and on the 3′ side by a two or one-nucleotide “wing”. […] All cytidine residues are 5-methylcytidines.
The short antisense compounds were analyzed for their effect on rat SGLT2 mRNA levels. Data are ranges taken from three experiments in which Male Sprague-Dawley rats (170-200 g) were dosed twice per week for three weeks with 450, 150 or 50 nmol/kg of either a 1-10-1 or 1-10-2 MOE gapmer given by intraperitoneal injection. Rats were sacrificed 48 hours following last administration and evaluated for SGLT2 mRNA levels in kidney. Target levels were determined by RT, real-time PCR as described by other examples herein. PCR results were normalized to an internal ISIS control.

Substance	% Control [1] [% Control]	percent inhibition of rat DGAT2 ([2]; 0.62 nM (Table 83)) [%]	percent inhibition of rat DGAT2 ([2]; 1.85 nM (Table 83)) [%]	percent inhibition of rat DGAT2 ([2]; 5.56 nM (Table 83)) [%]	percent inhibition of rat DGAT2 ([2]; 16.67 nM (Table 83)) [%]	percent inhibition of rat DGAT2 ([2]; 50 nM (Table 83)) [%]	percent inhibition of rat DGAT2 ([2]; 150 nM (Table 83)) [%]	% change in SGLT2 expression relative to saline ([3]; 50 nmol/kg i.p. twice per week for three weeks) [%]	% change in SGLT2 expression relative to saline ([3]; 150 nmol/kg i.p. twice per week for three weeks) [%]	% change in SGLT2 expression relative to saline ([3]; 450 nmol/kg i.p. twice per week for three weeks) [%]	percent inhibition of DGAT2 ([2]; 6.25 nM (Table 82)) [%]	percent inhibition of DGAT2 ([2]; 12.5 nM (Table 82)) [%]	percent inhibition of DGAT2 ([2]; 50.0 nM (Table 82)) [%]	percent inhibition of DGAT2 ([2]; 100.0 nM (Table 82)) [%]	percent inhibition of DGAT2 ([2]; 200.0 nM (Table 82)) [%]
372563 (antisense eA*eG*d[5mC]*d[5mC]*dA*dG*dG*dT*dG*dA*d[5mC]*dA*eG*eA) [compound 372563]	48	0	0	0	1	4	46	–	–	–	–	–	–	–	–
ISIS 382675 (eT*dA*dG*d[5mC]*d[5mC]*dA*d[5mC]*d[5mC]*dA*dA*d[5mC]*eT*eG)	–	–	–	–	–	–	–	−50	−65	−80	–	–	–	–	–
372501 (antisense eT*eT*eG*dT*dG*dT*dG*dT*d[5mC]*dT*dT*d[5mC]*dA*e[5mC]*e[5mC]*eA) [compound 372501]	28	1	5	10	11	25	68	–	–	–	–	–	–	–	–
372491 (antisense eA*e[5mC]*eA*dT*dG*dA*dG*dG*dA*dT*dG*dA*d[5mC]*eA*e[5mC]*eT) [compound 372491]	80	–	–	–	–	–	–	–	–	–	–	–	–	–	–
372530 (antisense eT*e[5mC]*eG*dG*d[5mC]*d[5mC]*d[5mC]*d[5mC]*dA*dG*dG*dA*dG*e[5mC]*e[5mC]*e[5mC]) [compound 372530]	35	0	2	0	10	38	78	–	–	–	–	–	–	–	–
372503 (antisense eG*e[5mC]*eA*dG*dG*dT*dT*dG*dT*dG*dT*dG*dT*e[5mC]*eT*eT) [compound 372503]	35	7	10	4	25	54	80	–	–	–	–	–	–	–	–
372580 (antisense eG*eG*dT*dT*dG*dT*dG*dT*dG*dT*d[5mC]*dT*eT*e[5mC]) [compound 372580]	48	0	5	5	3	16	42	–	–	–	–	–	–	–	–
372618 (antisense eG*eT*dG*dG*dT*dA*d[5mC]*dA*dG*dG*dT*d[5mC]*eG*eA) [compound 372618]	29	0	0	0	0	30	60	–	–	–	0	5	27	65	80
372524 (antisense eG*e[5mC]*e[5mC]*dA*dG*dG*d[5mC]*dA*dT*dG*dG*dA*dG*e[5mC]*eT*e[5mC]) [compound 372524]	21	7	0	5	30	68	91	–	–	–	–	–	–	–	–
372586 (antisense eG*eT*dT*d[5mC]*d[5mC]*dT*dG*dG*dT*dG*dG*dT*e[5mC]*eA) [compound 372586]	40	0	0	0	0	7	55	–	–	–	19	0	22	45	77
